Test results reported in article PMC6886523 (Nature chemical biology, 2017).
≈ marks a conversion by molar mass, not a printed value.

Experiments:
Mtb TrpAB [1] = target: T1, Mtb TrpAB (Mycobacterium tuberculosis, UniProt P9WFX9+P9WFY1); assay type: biochemical
Mtb [2] = assay type: cell-based, Mycobacterium tuberculosis
Mtb in J774 macrophages = assay type: cell-based; details: day 3 CFU/day 0 CFU
in vitro [3] = details: mouse, microsomes
TrpAB = TrpAB (Mycobacterium tuberculosis, UniProt P9WFX9+P9WFY1); assay type: biochemical
Chain of TrpAB (P9WFX9 12-421): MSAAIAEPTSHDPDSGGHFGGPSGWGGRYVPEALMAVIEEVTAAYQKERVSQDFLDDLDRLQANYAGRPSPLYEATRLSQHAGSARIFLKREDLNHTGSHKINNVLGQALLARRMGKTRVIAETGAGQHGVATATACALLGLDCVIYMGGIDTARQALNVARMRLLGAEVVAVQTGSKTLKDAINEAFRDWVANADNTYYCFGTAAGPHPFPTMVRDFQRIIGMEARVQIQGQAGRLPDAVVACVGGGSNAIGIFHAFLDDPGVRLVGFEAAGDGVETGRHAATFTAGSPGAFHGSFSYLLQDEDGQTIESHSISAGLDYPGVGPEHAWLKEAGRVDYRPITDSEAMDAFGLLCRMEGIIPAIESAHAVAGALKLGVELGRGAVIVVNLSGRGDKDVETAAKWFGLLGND
Chain of TrpAB (P9WFY1 whole entry): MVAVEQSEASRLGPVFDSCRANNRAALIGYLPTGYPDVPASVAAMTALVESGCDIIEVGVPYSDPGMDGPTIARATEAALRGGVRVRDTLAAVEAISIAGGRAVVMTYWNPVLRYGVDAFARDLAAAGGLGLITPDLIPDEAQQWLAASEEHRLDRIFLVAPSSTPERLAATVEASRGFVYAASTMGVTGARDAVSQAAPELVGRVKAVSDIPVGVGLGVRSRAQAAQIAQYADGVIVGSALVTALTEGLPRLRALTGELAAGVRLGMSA

M. marinum = assay: Zebrafish embryo infection, wild-type M. marinum; assay type: in vivo, Danio rerio (zebrafish); details: after 5 d of treatment
in vitro [4] = details: mouse, hepatocytes
GAPDH = GAPDH counter-check in coupled fluorescence assay; details: fluorescence assay conditions
Mtb TrpAB [5] = target: T1, Mtb TrpAB; assay type: biochemical; remark: listed apart in the source
[6] = ref PubChem compound ID 54650477; cited from earlier work
Mtb TrpAB [7] = target: T1, Mtb TrpAB
Mtb [8] = assay: microbe, parasite or virus in culture; assay type: cell-based
Mtb TrpAB [9] = target: T1, Mtb TrpAB; assay type: binding
[10] = tested on: panel of Gram-negative and Gram-positive bacterial species; assay type: cell-based

T1 sequence (P9WFY1 whole entry): as above
T1 sequence (P9WFX9 12-421): as the sequence (P9WFX9 12-421) above

Structure (SMILES): N#C[C@@H]1N[C@@H](CO)[C@H]1c1ccc(-c2ccccc2F)cc1 [BRD4592, (2R,3S,4R)-3-(2′-fluoro-[1,1′-biphenyl]-4-yl)-4-(hydroxymethyl)azetidine-2-carbonitrile]
- initial inhibition of the β-reaction (Mtb TrpAB [1]): more than 200 fold
- kcat^β under saturating compound (Mtb TrpAB [1]): 0.00433 ± 0.00017 s⁻¹
- mode of inhibition with respect to indole (Mtb TrpAB [1]): uncompetitive
- rate of L-Trp production slower than uninhibited enzyme (Mtb TrpAB [1]): 750 times
- reduction of colony-forming units (CFUs) of Mtb cultures (Mtb [2]): 2–3 logs
- restriction of Mtb growth in macrophages compared to DMSO (Mtb in J774 macrophages): eight-fold
- microsomal CLint at 1 μM (in vitro [3]): 336 µL/min/mg
- reversibility of inhibition (TrpAB): reversible inhibitor
- restriction of M. marinum growth in zebrafish embryos compared to DMSO (M. marinum): ~ 1.5 logs
- hepatocyte CLint at 1 μM (in vitro [4]): 47.2 µL/min/1e6 cells
- inhibition of GAPDH activity (GAPDH): not found to inhibit
- initial inhibition of the α-reaction (Mtb TrpAB [5]): more than 200 fold
- kcat^α under saturating compound (Mtb TrpAB [5]): 0.0013 ± 0.00017 s⁻¹
- mode of inhibition versus IGP (Mtb TrpAB [5]): uncompetitive
- mode of inhibition versus L-Ser (Mtb TrpAB [5]): mixed-type inhibitor
- α value (mixed-type inhibition) (Mtb TrpAB [5]): 0.81 ± 0.06
- α values (mixed model) (Mtb TrpAB [5]): < 0.00001
- activity in 36 screens reported in PubChem [6]: no activity
- Tm of TrpAB with compound (Mtb TrpAB [7]): 81.6 ± 0.2 °C
- increase of Tm of TrpAB in active β^C conformation (Mtb TrpAB [7]): 8 °C
- stabilization of the open conformation (Mtb TrpAB [7]): did not stabilize
- effect of L-Trp addition to growth medium on lethal effects (Mtb [8]; 1 mM L-Trp supplementation): rescued
- MIC90 (Mtb [8]; Mycobacterium tuberculosis, read-out: MIC90 (minimal concentration needed to inhibit 90% of bacterial growth)): 3 µM (≈ 0.847 µg/mL)
- activity among the stereoisomers of the azetidine (Mtb [8]; three stereogenic centers, eight stereoisomeric forms): only the BRD4592 stereoisomer was active
- increase in affinity of TrpAB for L-Trp (Mtb TrpAB [9]): 4.5 fold
- spectrum of activity against bacterial species [10]: active against several mycobacterial species but not other bacteria tested
